Drawing on ChEMBL document CHEMBL1811896, “Isoflavone dimers and other bioactive constituents from the figs of Ficus mucuso” (J Nat Prod, 2011), this text covers inhibition, IC50 and Ratio IC50 for 14 compounds.

The term inhibition denotes the relative decrease from the control value, in per cent. A word on the IC50: it is the midpoint of a concentration-inhibition curve.

The source made the active and inactive calls. No cut-off for these calls is given here.

Test [1] has as its target T1, Enoyl-acyl-carrier protein reductase (Plasmodium falciparum) (UniProt Q965D5).
T1 sequence (whole entry): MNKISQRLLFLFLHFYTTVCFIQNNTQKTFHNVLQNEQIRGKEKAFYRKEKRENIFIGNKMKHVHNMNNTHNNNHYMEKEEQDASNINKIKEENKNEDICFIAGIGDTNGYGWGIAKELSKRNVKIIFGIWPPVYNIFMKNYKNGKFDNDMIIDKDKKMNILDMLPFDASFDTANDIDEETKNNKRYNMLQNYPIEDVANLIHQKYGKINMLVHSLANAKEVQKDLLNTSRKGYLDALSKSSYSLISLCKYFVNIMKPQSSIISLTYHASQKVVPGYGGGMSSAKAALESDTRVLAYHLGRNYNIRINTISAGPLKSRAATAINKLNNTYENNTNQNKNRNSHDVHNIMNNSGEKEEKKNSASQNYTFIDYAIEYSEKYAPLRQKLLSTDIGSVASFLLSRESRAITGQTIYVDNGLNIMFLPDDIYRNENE
In words: Inhibition of Plasmodium falciparum Enoyl-ACP reductase using crotonyl-CoA as substrate at 0.25 mM peincubated for 5 mins measured after 10 mins of substrate addition by UV-vis spectrophotometry.

In test [2] the test system is Escherichia coli. In words: Inhibition of Escherichia coli beta-glucuronidase assessed as inhibition of p-nitrophenyl-beta-D-glucuronide hydrolysis at 0.08 mM preincubated for 30 mins measured 30 mins after substrate addition by spectrophotometry.
The target of test [3] is T1, Enoyl-acyl-carrier protein reductase (Plasmodium falciparum). In words: (§1) Inhibition of Plasmodium falciparum Enoyl-ACP reductase using crotonyl-CoA as substrate peincubated for 5 mins measured after 10 mins of substrate addition by UV-vis spectrophotometry.
In test [4] the test system is Escherichia coli. In words: Inhibition of Escherichia coli beta-glucuronidase assessed as inhibition of p-nitrophenyl-beta-D-glucuronide hydrolysis at 0.05 mM preincubated for 30 mins measured 30 mins after substrate addition by spectrophotometry.
Test [5] has as its system Escherichia coli. In words: Inhibition of Escherichia coli beta-glucuronidase assessed as inhibition of p-nitrophenyl-beta-D-glucuronide hydrolysis at 0.20 mM preincubated for 30 mins measured 30 mins after substrate addition by spectrophotometry.
A short description of test [6]: Inhibition of Escherichia coli beta-glucuronidase assessed as inhibition of p-nitrophenyl-beta-D-glucuronide hydrolysis preincubated for 30 mins measured 30 mins after substrate addition by spectrophotometry.
Test [7] concerns the target T1, Enoyl-acyl-carrier protein reductase (Plasmodium falciparum). The settings on record: 0.1 mM.
Description: Inhibition of Plasmodium falciparum Enoyl-ACP reductase using crotonyl-CoA as substrate at 0.1 mM peincubated for 5 mins measured after 10 mins of substrate addition by UV-vis spectrophotometry
In test [8] the target is T2, Enoyl-acyl-carrier protein reductase (Plasmodium falciparum, UniProt Q965D5).
T2 sequence (Q965D5 whole entry): T1 sequence (whole entry)
Described as §1.

For test [9], the system named is Escherichia coli. In words: Ratio of D-saccharic acid-1,4-lactone IC50 to compound IC50 for Escherichia coli beta-glucuronidase.
For test [10], the system named is Escherichia coli. In words: Inhibition of Escherichia coli beta-glucuronidase assessed as inhibition of p-nitrophenyl-beta-D-glucuronide hydrolysis at 0.10 mM preincubated for 30 mins measured 30 mins after substrate addition by spectrophotometry.
In test [11] the target is T1, Enoyl-acyl-carrier protein reductase (Plasmodium falciparum). In words: Inhibition of Plasmodium falciparum Enoyl-ACP reductase using crotonyl-CoA as substrate at 0.025 mM peincubated for 5 mins measured after 10 mins of substrate addition by UV-vis spectrophotometry.
Test [12] shares this target. As to conditions: 0.05 mM.
Description: Inhibition of Plasmodium falciparum Enoyl-ACP reductase using crotonyl-CoA as substrate at 0.05 mM peincubated for 5 mins measured after 10 mins of substrate addition by UV-vis spectrophotometry
Test [13] has the same target. In words: Inhibition of Plasmodium falciparum Enoyl-ACP reductase using crotonyl-CoA as substrate at 0.15 mM peincubated for 5 mins measured after 10 mins of substrate addition by UV-vis spectrophotometry.

As to `CC1(C)C=Cc2c(cc3occ(-c4ccc(O)cc4)c(=O)c3c2O)O1`, the results for the inhibition in test [1] and in test [2] were 12.6% and 17.6%, respectively.

With `CCCCC/C=C/CCCCCCC[C@@H](O)[C@@H](O)[C@H](CO)NC(=O)[C@H](O)CCCCCCCCCCCCCCCCCCCCCC`, the inhibition entry in test [1] and in test [3] was “inactive” each time. Besides, in test [2], the inhibition was determined as 1.7%.

As for `C[C@@H]1CC[C@]2(C(=O)O)CC[C@]3(C)C(=CC[C@@H]4[C@@]5(C)C[C@@H](O)[C@H](OC(=O)/C=C/c6ccc(O)cc6)C(C)(C)[C@@H]5CC[C@]43C)[C@@H]2[C@]1(C)O`, the figures for the inhibition in test [1] and in test [2] were 3.9% and 15.9%, respectively.

Take `O=C(O)[C@@H](O)[C@H]1OC(=O)[C@H](O)[C@H]1O`: in test [4], the inhibition turned out to be 99.5%.

Take `O=C(O)c1ccc(O)c(O)c1`: the inhibition in test [5] stood at 23.5%.

Take `O=c1cc(-c2ccc(O)cc2)oc2cc(O)cc(O)c12`: the inhibition in test [5] came to 15.7%.

Consider `COc1c(-c2ccc(O)c(O)c2)oc2cc(O)cc(O)c2c1=O` [3-O-METHYLQUERCETIN], for which the inhibition was 85.2% in test [5] and 88.2% in test [7]. For the same compound, the IC50 in test [6] was 44.6 µM; in [8], 35.2 µM.

For `O=c1c(O)c(-c2ccc(O)cc2)oc2cc(O)cc(O)c12` [KAEMPFEROL], the inhibition was 6.5% in test [1] and 87.5% in [5]. In addition, the half-maximal inhibitory concentration (IC50) in test [6] amounted to 27.6 µM.

`CC1=C[C@H](c2cc(-c3coc4cc(O)cc(O)c4c3=O)ccc2O)[C@](C)(/C=C/c2cc(-c3coc4cc(O)cc(O)c4c3=O)ccc2O)CC1` [MUCUSISOFLAVONE A]: the Ratio IC50 in test [9] came to 71. Also, the inhibition result in test [1] and in [3] was “inactive” throughout. In test [5], the inhibition stood at 98.7%. In addition, in [6], the IC50 was found to be 0.68 µM.

As for `CC(C)=C[C@@H]1C[C@](C)(/C=C/c2cc(-c3coc4cc(O)cc(O)c4c3=O)ccc2O)Oc2ccc(-c3coc4cc(O)cc(O)c4c3=O)cc21` [MUCUSISOFLAVONE B], the inhibition entry in test [1] and in test [3] was “inactive” in each case. The inhibition in [10] was determined as 70.1%. Further, the IC50 in test [6] was 14 µM.

On to `CC(C)=CCc1cc(-c2coc3c(C(C=C(C)C)c4cc(-c5coc6cc(O)cc(O)c6c5=O)ccc4O)c(O)cc(O)c3c2=O)ccc1O` (centres undefined) [MUCUSISOFLAVONE C], for which the inhibition in [10] amounted to 94%; in test [11] it was 89.1%. Also, the values for the IC50 in test [6] and in [8] were 3.08 µM and 7.69 µM, respectively.

In the case of `Oc1cc(Cl)ccc1Oc1ccc(Cl)cc1Cl` [TRICLOSAN], the inhibition in test [12] stood at 99.5%. In [8], this compound displayed an IC50 of 0.2 µM.

Turning to `CC(C)=CCc1c(O)cc2occ(-c3ccc(O)cc3)c(=O)c2c1O` [WIGHTEONE], the inhibition amounted to 42.6% in test [13] and 97.3% in test [5]. For the same compound, in test [6], the IC50 is 4.03 µM.

With `COc1ccc(C(=O)O)cc1` [p-ANISIC ACID], the inhibition entry in test [1] and in [3] was “inactive” in each case. In [5], the inhibition stood at 66.2%. Also, the IC50 in test [6] was 124 µM.
